Assay results reported in patent US11149018B2, “Substituted N-arylethyl-2-aminoquinoline-4-carboxamides and use thereof” (Bayer Aktiengesellschaft, priority 2017, dated 2021).

target: FP receptor (Homo sapiens (Human), UniProt P43088); experiment: In vitro test of inhibition of human FP receptor activity (PGF2α-induced calcium flux in FP-expressing CHEM1 cells); assay type: cell-based; conditions: PGF2α 2 nM, some mean values of multiple determinations
Procedure: B-1. In Vitro Test of Inhibition of Human FP Receptor Activity
For the characterization of test substances in respect of FP antagonism, PGF2α-induced calcium flux in FP-expressing CHEM1 cells (Millipore, HTS093C) was used.
10 μl of the prediluted substance solution are added to the Fluo-8-laden cells and incubated at 37° C., 5% CO2 for 10 minutes. The FP receptor is activated by adding 40 μl of 2 nM (final concentration) PGF2α in calcium-free Tyrode, 2 mM CaCl2, 0.002% SmartBlock, and the calcium flux is determined by measuring the fluorescence at ex. 470 nm/[…].
Table 1 below lists the IC50 values from this assay for individual working examples of the invention (some as mean values from multiple independent individual determinations): […]

Sequence of FP receptor (P43088 whole entry): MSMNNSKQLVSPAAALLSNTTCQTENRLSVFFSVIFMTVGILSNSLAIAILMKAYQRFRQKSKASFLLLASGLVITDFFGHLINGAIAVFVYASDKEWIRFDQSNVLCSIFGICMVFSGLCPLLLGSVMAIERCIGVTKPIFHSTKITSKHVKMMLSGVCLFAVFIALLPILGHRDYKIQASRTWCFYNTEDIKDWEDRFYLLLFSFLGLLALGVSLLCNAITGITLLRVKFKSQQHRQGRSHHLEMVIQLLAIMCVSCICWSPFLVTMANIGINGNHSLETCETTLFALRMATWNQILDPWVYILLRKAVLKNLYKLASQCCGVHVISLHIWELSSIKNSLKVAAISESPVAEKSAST

In order of rising IC50:
1. Cc1c(N2CCCC(C)C2)nc2ccc(Br)cc2c1C(=O)NCC(CCC(=O)O)c1ccccc1OC(F)(F)F (single isomer, unassigned; (+)) [Example 212, (+)-5-[({6-Bromo-3-methyl-2-[3-methylpiperidin-1-yl]quinolin-4-yl}carbonyl)amino]-4-[2-(trifluoromethoxy)phenyl]pentanoic acid]  1.9 nM
2. Cc1c(N2CCCC(F)(F)C2)nc2ccc(Br)cc2c1C(=O)NCC(CCC(=O)O)c1c(Cl)ccc(Cl)c1Cl (single isomer, unassigned; (-)) [Example 179, (−)-5-({[6-Bromo-2-(3,3-difluoropiperidin-1-yl)-3-methylquinolin-4-yl]carbonyl}amino)-4-(2,3,6-trichlorophenyl)pentanoic acid]  2.3 nM
3. Cc1c(N2CCCC2)nc2ccc(Br)cc2c1C(=O)NCC(CCC(=O)O)c1c(F)cccc1C(F)(F)F (single isomer, unassigned; (-)) [Example 165, (−)-5-({[6-Bromo-3-methyl-2-(pyrrolidin-1-yl)quinolin-4-yl]carbonyl}amino)-4-[2-fluoro-6-(trifluoromethyl)phenyl]pentanoic acid]  2.9 nM
4. Cc1c(N2CCCCCC2)nc2ccc(Br)cc2c1C(=O)NCC(CCC(=O)O)c1ccccc1OC(F)(F)F (racemic) [Example 135, (+/−)-5-({[2-(Azepan-1-yl)-6-bromo-3-methylquinolin-4-yl]carbonyl}amino)-4-[2-(trifluoromethoxy)phenyl]pentanoic acid]  3 nM
5. Cc1c(N2CCCC(F)(F)C2)nc2ccc(Br)cc2c1C(=O)NCC(CCC(=O)O)c1ccccc1OC(F)(F)F (single isomer, unassigned; (+)) [Example 134, (+)-5-({[6-Bromo-2-(3,3-difluoropiperidin-1-yl)-3-methylquinolin-4-yl]carbonyl}amino)-4-[2-(trifluoromethoxy)phenyl]pentanoic acid]  4.9 nM
6. CCC1CCCN(c2nc3ccc(Br)cc3c(C(=O)NCC(CCC(=O)O)c3c(Cl)ccc(Cl)c3Cl)c2C)C1 (stereo not drawn) [Example 181, 5-[({6-Bromo-2-[3-ethylpiperidin-1-yl]-3-methylquinolin-4-yl}carbonyl)amino]-4-(2,3,6-trichlorophenyl)pentanoic acid]  6.6 nM
7. CCC1CCCN(c2nc3ccc(Br)cc3c(C(=O)NCC(CCC(=O)O)c3ccccc3Cl)c2C)C1 (single isomer, unassigned; (-)) [Example 60, (−)-5-[({6-Bromo-2-[3-ethylpiperidin-1-yl]-3-methylquinolin-4-yl}carbonyl)amino]-4-(2-chlorophenyl)pentanoic acid]  7.5 nM
8. Cc1c(N2CCCCC2)nc2ccc(Br)cc2c1C(=O)NCC(CCC(=O)O)c1cc(F)ccc1F (single isomer, unassigned; (-)) [Example 256, (−)-5-({[6-Bromo-3-methyl-2-(piperidin-1-yl)quinolin-4-yl]carbonyl}amino)-4-(2,5-difluorophenyl)pentanoic acid]  8.4 nM
9. Cc1c(N2CCCC(F)C2)nc2ccc(Br)cc2c1C(=O)NCC(CCC(=O)O)c1ccccc1Cl (single isomer, unassigned; (-)) [Example 186, (−)-5-[({6-Bromo-2-[3-fluoropiperidin-1-yl]-3-methylquinolin-4-yl}carbonyl)amino]-4-(2-chlorophenyl)pentanoic acid]  8.6 nM
10. Cc1ccccc1C(CCC(=O)O)CNC(=O)c1c(C)c(N2CCCC2)nc2ccc(Br)cc12 (single isomer, unassigned; (-)) [Example 234, (−)-5-({[6-Bromo-3-methyl-2-(pyrrolidin-1-yl)quinolin-4-yl]carbonyl}amino)-4-(2-methylphenyl)pentanoic acid]  8.9 nM
11. Cc1c(N2CCCCC2)nc2ccc(Br)cc2c1C(=O)NCC(CCC(=O)O)c1ccccc1C(F)(F)F (single isomer, unassigned; (+)) [Example 113, (+)-5-({[6-Bromo-3-methyl-2-(piperidin-1-yl)quinolin-4-yl]carbonyl}amino)-4-[2-(trifluoromethyl)phenyl]pentanoic acid]  9.9 nM
12. Cc1c(N2CCCCCC2)nc2ccc(Br)cc2c1C(=O)NCC(CCC(=O)O)c1ccccc1C(F)(F)F (racemic) [Example 120, (+/−)-5-({[2-(Azepan-1-yl)-6-bromo-3-methylquinolin-4-yl]carbonyl}amino)-4-[2-(trifluoromethyl)phenyl]pentanoic acid]  11 nM
13. Cc1c(N2CC[C@@H](F)C2)nc2ccc(Br)cc2c1C(=O)NCC(CCC(=O)O)c1ccccc1Cl (stereo partly drawn) [Example 66, 5-[({6-Bromo-2-[(3R)-3-fluoropyrrolidin-1-yl]-3-methylquinolin-4-yl}carbonyl)amino]-4-(2-chlorophenyl)pentanoic acid]  12 nM
14. Cc1c(N2CCCCC2)nc2ccc(Br)cc2c1C(=O)NCC(CCC(=O)O)c1c(F)cccc1F (racemic) [Example 244, (+/−)-5-({[6-Bromo-3-methyl-2-(piperidin-1-yl)quinolin-4-yl]carbonyl}amino)-4-(2,6-difluorophenyl)pentanoic acid]  12 nM
15. Cc1c(N2CCCC(F)(F)C2)nc2ccc(Br)cc2c1C(=O)NCC(CCC(=O)O)c1ccccc1Cl (single isomer, unassigned; (-)) [Example 51, (−)-5-({[6-Bromo-2-(3,3-difluoropiperidin-1-yl)-3-methylquinolin-4-yl]carbonyl}amino)-4-(2-chlorophenyl)pentanoic acid]  13 nM
16. Cc1ccccc1C(CCC(=O)O)CNC(=O)c1c(C)c(N2CCCC(F)(F)C2)nc2ccc(Br)cc12 (racemic) [Example 229, (+/−)-5-({[6-Bromo-2-(3,3-difluoropiperidin-1-yl)-3-methylquinolin-4-yl]carbonyl}amino)-4-(2-methylphenyl)pentanoic acid]  13 nM
17. Cc1c(N2CCCC2)nc2ccc(Br)cc2c1C(=O)NCC(CCC(=O)O)c1ccccc1C(F)(F)F (racemic) [Example 114, (+/−)-5-({[6-Bromo-3-methyl-2-(pyrrolidin-1-yl)quinolin-4-yl]carbonyl}amino)-4-[2-(trifluoromethyl)phenyl]pentanoic acid]  14 nM
18. Cc1c(N2CCC(C)C2)nc2ccc(Br)cc2c1C(=O)NCC(CCC(=O)O)c1ccccc1Cl (stereo not drawn) [Example 36, 5-[({6-Bromo-3-methyl-2-[3-methylpyrrolidin-1-yl]quinolin-4-yl}carbonyl)amino]-4-(2-chlorophenyl)pentanoic acid]  22 nM
19. Cc1ccc(F)cc1C(CCC(=O)O)CNC(=O)c1c(C)c(N2CCCC(F)(F)C2)nc2ccc(Br)cc12 (racemic) [Example 150, (+/−)-5-({[6-Bromo-2-(3,3-difluoropiperidin-1-yl)-3-methylquinolin-4-yl]carbonyl}amino)-4-(5-fluoro-2-methylphenyl)pentanoic acid]  22 nM
20. [2H]C1([2H])N(c2nc3ccc(Br)cc3c(C(=O)NCC(CCC(=O)O)c3ccccc3C(F)(F)F)c2C)C([2H])([2H])C([2H])([2H])C1([2H])[2H] (single isomer, unassigned; (-)) [Example 277, (−)-5-[({6-Bromo-3-methyl-2-[(^2H8)pyrrolidin-1-yl]quinolin-4-yl}carbonyl)amino]-4-[2-(trifluoromethyl)phenyl]pentanoic acid]  34 nM
21. Cc1c(N2CC3CC(C3)C2)nc2ccc(Br)cc2c1C(=O)NCC(CCC(=O)O)c1ccccc1Cl (racemic) [Example 73, (+/−)-5-[({2-[3-Azabicyclo[3.1.1]hept-3-yl]-6-bromo-3-methylquinolin-4-yl}carbonyl)amino]-4-(2-chlorophenyl)pentanoic acid]  48 nM
22. Cc1c(N2CC=CCO2)nc2ccc(Br)cc2c1C(=O)NCC(CCC(=O)O)c1ccccc1Cl (racemic) [Example 77, (+/−)-5-({[6-Bromo-2-(3,6-dihydro-2H-1,2-oxazin-2-yl)-3-methylquinolin-4-yl]carbonyl}amino)-4-(2-chlorophenyl)pentanoic acid]  66 nM
23. Cc1c(N2CCCO2)nc2ccc(Br)cc2c1C(=O)NCC(CCC(=O)O)c1cc(F)ccc1Cl (racemic) [Example 14, (+/−)-5-({[6-Bromo-3-methyl-2-(1,2-oxazolidin-2-yl)quinolin-4-yl]carbonyl}amino)-4-(2-chloro-5-fluorophenyl)pentanoic acid]  70 nM
24. Cc1c(N2CCC(C)(F)C2)nc2ccc(Br)cc2c1C(=O)NCC(CCC(=O)O)c1ccccc1Cl (stereo not drawn) [Example 71, 5-[({6-Bromo-2-[3-fluoro-3-methylpyrrolidin-1-yl]-3-methylquinolin-4-yl}carbonyl)amino]-4-(2-chlorophenyl)pentanoic acid]  110 nM
25. Cc1c(NCCc2ccccc2)nc2ccc(Br)cc2c1C(=O)NCC(CC(=O)O)c1c(F)cccc1Cl (racemic) [Example 4, (+/−)-4-[({6-Bromo-3-methyl-2-[(2-phenylethyl)amino]quinolin-4-yl}carbonyl)amino]-3-(2-chloro-6-fluorophenyl)butanoic acid]  170 nM
26. Cc1c(N2CCCC(CO)C2)nc2ccc(Br)cc2c1C(=O)NCC(CCC(=O)O)c1cc(F)ccc1Cl (stereo not drawn) [Example 21, 5-[({6-Bromo-2-[3-(hydroxymethyl)piperidin-1-yl]-3-methylquinolin-4-yl}carbonyl)amino]-4-(2-chloro-5-fluorophenyl)pentanoic acid]  230 nM
27. Cc1c(N2CNC(=O)C2)nc2ccc(Br)cc2c1C(=O)NCC(CCC(=O)O)c1ccccc1Cl (racemic) [Example 88, (+/−)-5-({[6-Bromo-3-methyl-2-(4-oxoimidazolidin-1-yl)quinolin-4-yl]carbonyl}amino)-4-(2-chlorophenyl)pentanoic acid]  880 nM
